Legend:
[1] = tested on: mouse bone marrow mesenchymal stem cells; assay: Senescence of mouse bone marrow mesenchymal stem cells by passaging; type: cell-based; conditions: 10 μM
Procedure: Extraction of bone marrow mesenchymal stem cells: C57 mice weighing about 25 g were selected, and after anesthesia with 30 mg/kg chloral hydrate, the femur and tibia were removed and put into a Petri dish, one end of the femur and tibia were cut off to fully expose the bone marrow cavity, and a 1 ml syringe was used to extract the DMEM/F12 medium, and the tip of the needle was pricked into the bone marrow cavity to rinse the bone marrow, and a 15 ml centrifuge tube was connected underneath to make the rinsed liquid flow into the centrifuge tube, and the rinsing was repeated several times until the bone marrow cavity was rinsed clean. The rinsed suspension was blown repeatedly with a pipette to make the cells in the rinsed liquid as single-cell as possible, and the supernatant was transferred to another tube after standing still for a few minutes, and the cell suspension was continued to blow to make the cells well dispersed. The obtained cell suspension was centrifuged at 1000 rpm for 5 min, and after removing the residual supernatant, 1 ml of DMEM/F12 medium was added, and after repeated blowing, the CD45-Sca-1+PDGFRα+high-purity primary mouse bMSC cell line was sorted out by flow cytometric sorting, and the sorted cells were dispensed into culture flasks. The cells were observed under the microscope and placed in the incubator at 37° C., 5% CO2 to incubate, and the solution was replaced for 72 h, the drug administration treatment was performed at the first passaging, and then 10 μM TJ01-013 was given to each passaging thereafter, labeled as Con-Y at the 2nd generation, and labeled as Con-O at the 9th generation, and the drug administration treatment groups were given until the 9th generation, and all the cells were placed under the microscope for observing the morphology of the cells, and the proportion of the SA-β-gal+ cells was counted. The levels of the DNA damage marker γ-H2AX and the heterochromatin modification H3K9me3 after TJ01-013 treatment were detected by immunofluorescence technique (procedure described previously).

[2] = tested on: CUMS animal model of depression; assay: CUMS depression model behavioral tests; type: in vivo, C57BL/6J mice; conditions: Fluoxetine 30 mg/kg
Source text: Depression, also known as depressive disorder, is characterized by significant and long-lasting depressed state of mind as the main clinical feature. The CUMS animal model of depression is a chronic unpredictable animal stress model, which simulates part of the stressor, the external material environmental stimulus, and will cause dysfunctions in the animal organism through different stress stimuli, leading to occurrence of the psychiatric disease depression. […] During this period, carefully observing the status of each mouse. • (6) Basket shaking: Placing the mice in an empty basket and shaking the basket drastically, with the criterion that the mice in the basket are unable to stand firm and sway with the shaking of the basket, for 1 hour. • (7) Olfactory stimulation: Placing anise and other spices in the mice's baskets as a means of olfactory stimulation.
The above seven experiments were conducted randomly during a week as a way to achieve unpredictability with 4 weeks of continuous stimulation.
At the end of the modeling, an open field test experiment was conducted to screen the modeled animals and group the successful modeled animals into five groups: normal group (Control), model control group (Model), positive drug treatment group (Fluoxetine), TJ0113 10 mg/kg treatment group (10 mg/kg), […], TJ0113 30 mg/kg treatment group (30 mg/kg). There were 10 mice in each group, and the administration treatment was administered by gavage, the normal and model control groups were given vehicle treatment, the vehicle was 0.5% CMC-Na, the positive drug fluoxetine hydrochloride was solubilized in saline and administered at a dose of 30 mg/kg, and the TJ0113 vehicle was 0.5% CMC-Na, and administered at a dose of 10 mg/kg and 30 mg/kg, respectively. 4 weeks after the end of the administration, behavioral tests were performed.
• (1) Adaptive feeding: Adaptive feeding with 1% sucrose water and plain water for 2 d before the start of the test, at 1 d, interchanging the sugar water and plain water to avoid positional differences for the animals, and fasting food and water for 1 d after adaption; • (2) Formal test: after fasting food and water, 1% sucrose water and plain water were given to the animals (the initial mass of sugar water and plain water is known), and weighing the remaining mass of sugar water/plain water of each animal after 24 h, and calculating the consumption rates of sugar water A and plain water B; • (3) Data analysis: sugar water preference rate=(A/A+B)×100%.
• (1) adapting to the environment: placing the animals in the test environment for 60 min to adapt to the environment before the test; • (2) Formal test: fixing the rear 1/3 of the mouse tail with tape and suspending on the stand of the experimental apparatus, with the head 15 cm from the bottom; • (3) starting timing camera, and stopping after 6 min, and recording the immobility time of the mice within 4 min; • (4) At the end of the test, using 75% alcohol to wipe the bottom and inner wall of the chamber.
• (1) adapting to the environment: placing the animals in the test environment for 60 min to adapt to the environment before the test; • (2) Formal test: placing the animals to be tested in the middle of the open field, and using the ANY-Maze software to collect the data, the test time is 10 min, and the feces and urine must be removed at the end of each round and disinfected and wiped dry with 75% alcohol; • (3) Analysis of results: total moved distance and average speed during the activity, time spent in the center area and time spent in the corner area.

Which results are given for `O=C(O)C[S+]([O-])c1cc(NS(=O)(=O)c2ccc(Br)cc2)c2ccccc2c1O` (centres unmarked) [I-1]?
percentage of SA-β-gal+ cells ([1]; 9th generation, vs Con-O, FIG. 48): significantly decreased; expression level of heterochromatin-modified H3K9me3 ([1]; Con-O cells, FIG. 50): restored its expression level to some extent; level of DNA damage marker γ-H2AX ([1]; aged cells, FIG. 49): significantly reduced; average movement speed, open field ([2]; TJ0113 10 mg/kg and 30 mg/kg, FIG. 61): significantly increased; sugar water preference ([2]; TJ0113 30 mg/kg, gavage, FIG. 57): significantly increased; time in despair (immobility), tail-hanging experiment ([2]; TJ0113 30 mg/kg, FIG. 58): significantly decreased; distance moved, open field ([2]; TJ0113 30 mg/kg, FIG. 59): significantly increased; time in the edge area of the open field ([2]; TJ0113 30 mg/kg, FIG. 60): significantly decreased
